Where a SMILES comes first, the peptide text is derived from it. [ ]: non-standard residue; d: D form. Aib = CC(C)(N)C(=O)O

One data set addresses T1, Tissue factor pathway inhibitor (Homo sapiens, UniProt P10646).
T1 sequence (P10646 whole entry): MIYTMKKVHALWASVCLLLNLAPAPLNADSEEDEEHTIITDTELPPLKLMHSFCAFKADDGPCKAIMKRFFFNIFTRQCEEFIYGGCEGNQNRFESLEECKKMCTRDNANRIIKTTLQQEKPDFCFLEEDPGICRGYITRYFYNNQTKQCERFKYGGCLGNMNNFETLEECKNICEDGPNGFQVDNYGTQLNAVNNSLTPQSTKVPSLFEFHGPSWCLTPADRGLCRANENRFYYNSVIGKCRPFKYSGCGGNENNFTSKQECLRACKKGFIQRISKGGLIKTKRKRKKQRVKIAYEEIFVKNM
Description: Binding affinity to TFPI (unknown origin) incubated for […] using tracer peptide JBT0131 by screening ELISA.
Conditions: not given
Usually IC50 stands for the concentration that inhibits the measured activity by half. Read a low IC50 as greater potency in that assay. As to `CCCCCCCCCCCCCC(=O)NCCCC[C@H](NC(=O)[C@H]1CCCN1C(=O)[C@H](CCCCN)NC(=O)[C@H](CO)NC(=O)[C@H](CCC(N)=O)NC(=O)[C@H](Cc1ccccc1)NC(=O)CCCCC)C(=O)N[C@H](C(=O)N[C@@H](Cc1cnc[nH]1)C(=O)N[C@H](C(=O)N[C@@H](CC(=O)O)C(=O)N[C@H](C)C(=O)N[C@@H](Cc1ccc(O)cc1)C(=O)N[C@@H](Cc1ccccc1)C(=O)N[C@@H](CCC(=O)O)C(=O)N[C@@H](CCCNC(=N)N)C(=O)N[C@@H](CC(C)C)C(=O)NC(C)(C)C(=O)N[C@@H](C)C(=O)N[C@@H](CCCCN)C(=O)N[C@@H](CC(C)C)C(N)=O)C(C)(C)C)C(C)C`, the IC50 was > 0.5 µM.

On to Ac-FQSKKNDFVFGYFERLRAKL-NH2, for which the IC50 was > 5 µM.

Take Ac-FQSKKNVFLFGYFERLRAKL-NH2: the IC50 is > 5 µM.

As to Ac-FQSKKNVFDFGYFERLRAKL-NH2, the IC50 is > 5 µM.

As to Ac-FQSKGNVFVDGYFERLRMKL-NH2, the IC50 was < 0.05 µM.

Regarding Ac-FQSKKLVFVFGYFERLRAKL-NH2, the IC50 is > 5 µM.

In the case of Ac-FQSKHHVFVDGYFERLCAKL-NH2, the 50% inhibitory concentration (IC50) is < 0.05 µM.

In the case of `CC(=O)N[C@@H](Cc1ccccc1)C(=O)N[C@@H](CCC(N)=O)C(=O)N[C@@H](CO)C(=O)N[C@@H](CCCCN)C(=O)NCC(=O)N[C@@H](CC(N)=O)C(=O)N[C@H](C(=O)N[C@@H](Cc1ccccc1)C(=O)N[C@H](C(=O)N[C@@H](CC(=O)O)C(=O)NCC(=O)N[C@@H](Cc1ccc(O)cc1)C(=O)N[C@@H](Cc1ccccc1)C(=O)N[C@@H](CCC(=O)O)C(=O)NC(C)(C)C(=O)N[C@@H](CC(C)C)C(=O)NC(C)(C)C(=O)N[C@@H](C)C(=O)N[C@@H](CCCCN)C(=O)N[C@@H](CC(C)C)C(N)=O)C(C)C)C(C)C` (Ac-FQSKGNVFVDGYFE[Aib]L[Aib]AKL-NH2), the IC50 is > 5 µM.

Turning to Ac-FQSKKNVFVFGYFEGLRAKL-NH2, the IC50 was > 5 µM.

With `CC(=O)N[C@@H](Cc1ccccc1)C(=O)N[C@@H](CCC(N)=O)C(=O)N[C@@H](CO)C(=O)N[C@@H](CCCCN)C(=O)NCC(=O)N[C@@H](CC(N)=O)C(=O)N[C@H](C(=O)N[C@@H](Cc1ccccc1)C(=O)N[C@H](C(=O)N[C@@H](CC(=O)O)C(=O)NCC(=O)N[C@@H](Cc1ccc(O)cc1)C(=O)N[C@@H](Cc1ccccc1)C(=O)N[C@@H](CCC(=O)O)C(=O)N[C@@H](CCCNC(=N)N)C(=O)N[C@@H](CC(C)C)C(=O)NC(C)(C)C(=O)N[C@@H](C)C(=O)NC(C)(C)C(=O)N[C@@H](CC(C)C)C(N)=O)C(C)C)C(C)C` (Ac-FQSKGNVFVDGYFERL[Aib]A[Aib]L-NH2), the IC50 is > 5 µM.

Ac-FQSKKNVFVFGYFERDRAKL-NH2: the IC50 was > 5 µM.

Test system in the next data set: not listed separately
Description: Stability in mouse plasma assessed as parent compound remaining after 24 hrs. It counts as ADME, cell-free. As to conditions: read-out: Stability.
Regarding `CC(=O)N[C@@H](Cc1ccccc1)C(=O)N[C@@H](CCC(N)=O)C(=O)N[C@@H](CO)C(=O)N[C@@H](CCCCN)C(=O)N1CCC[C@@H]1C(=O)N[C@@H](CC(N)=O)C(=O)N[C@H](C(=O)N[C@@H](Cc1cnc[nH]1)C(=O)N[C@H](C(=O)N[C@@H](CC(=O)O)C(=O)N[C@H](C)C(=O)N[C@@H](Cc1ccc(O)cc1)C(=O)N[C@@H](Cc1ccccc1)C(=O)N[C@@H](CCC(=O)O)C(=O)N[C@@H](CCCNC(=N)N)C(=O)N[C@H]1CCSSCC[C@@H](C(N)=O)NC(=O)[C@H](CCCCN)NC(=O)[C@H](C)NC(=O)C(C)(C)NC1=O)C(C)(C)C)C(C)C`, the remaining at 24 h was 65.5%.

For the compound `COc1ccc(C[C@H](NC(=O)CNC(=O)[C@H](CC(=O)O)NC(=O)[C@@H](NC(=O)[C@H](Cc2cnc[nH]2)NC(=O)[C@@H](NC(=O)[C@H](CC(N)=O)NC(=O)[C@H]2CCCN2C(=O)[C@H](CCCCN)NC(=O)[C@H](CO)NC(=O)[C@H](CCC(N)=O)NC(=O)[C@H](Cc2ccccc2)NC(C)=O)C(C)C)C(C)C)C(=O)N[C@@H](Cc2ccccc2)C(=O)N[C@@H](CCC(=O)O)C(=O)N[C@@H](CCCNC(=N)N)C(=O)N[C@@H](CC(C)C)C(=O)NC(C)(C)C(=O)N[C@@H](C)C(=O)N[C@@H](CCCCN)C(=O)N[C@@H](CC(C)C)C(N)=O)cc1`, the remaining at 24 h stood at 7.3%.

Values taken from ChEMBL document CHEMBL4420062, “Tfpi inhibitors and methods of use” (2013).
